Assay results as given in article PMC12247293 (Journal of Translational Medicine, 2025).
pKd: −log10 of the molar value.

Biological target: STAT3 (Homo sapiens, UniProt P40763)
Experiment: SPR
Format: binding

STAT3, sequence (P40763 2-770): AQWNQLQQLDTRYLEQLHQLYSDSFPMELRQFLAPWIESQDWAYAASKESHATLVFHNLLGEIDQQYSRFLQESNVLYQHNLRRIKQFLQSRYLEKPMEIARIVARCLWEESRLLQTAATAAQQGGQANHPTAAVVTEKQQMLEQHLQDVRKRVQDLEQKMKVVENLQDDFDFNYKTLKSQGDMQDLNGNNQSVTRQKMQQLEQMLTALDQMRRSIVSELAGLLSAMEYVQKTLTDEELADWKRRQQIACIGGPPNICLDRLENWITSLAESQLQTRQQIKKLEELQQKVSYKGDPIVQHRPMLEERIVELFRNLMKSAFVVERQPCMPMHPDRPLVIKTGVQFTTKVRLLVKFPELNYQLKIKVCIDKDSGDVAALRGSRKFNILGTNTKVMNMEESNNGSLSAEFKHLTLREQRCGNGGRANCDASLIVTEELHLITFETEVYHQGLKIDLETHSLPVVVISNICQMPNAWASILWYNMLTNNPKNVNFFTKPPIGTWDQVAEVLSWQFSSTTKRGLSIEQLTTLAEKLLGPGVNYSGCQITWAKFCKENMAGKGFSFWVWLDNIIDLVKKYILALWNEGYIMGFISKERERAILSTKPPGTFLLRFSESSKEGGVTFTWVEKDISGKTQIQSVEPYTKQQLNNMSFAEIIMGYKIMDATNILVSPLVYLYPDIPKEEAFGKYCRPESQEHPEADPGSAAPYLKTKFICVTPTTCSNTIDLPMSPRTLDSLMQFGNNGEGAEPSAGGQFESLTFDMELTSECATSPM

- pKd: 3.06
SMILES: Fc1ccc(-n2cc(CCCCN3CCC4(CC3)OCc3ccccc34)c3ccccc32)cc1 [Siramesine]
